Legend:
[1] = system: subchronic PCP-induced impairment in cognition memory; assay: Rodent novel object recognition (NOR) assay in phencyclidine-induced cognitive deficits modeling schizophrenia; assay type: in vivo, rat; details: PCP-treated rats
From the text: The aim of this study was to investigate the ability of the compounds of the invention to improve subchronic PCP-induced impairment in cognition memory using the NOR task in the rat, a paradigm of relevance to cognition in schizophrenia. Adult male Sprague-Dawley rats (250-350 g; Harlan, USA) were used for the experiments. Animal were acclimated to the facility for 7 days prior to experimentation. Seven groups of 14 animals per group were used for the experiment. One group of animals received vehicle (0.9% saline twice daily) and the remaining six groups received PCP (2.5 mg/kg, s.c. twice daily) for 7 days, followed by 5-days drug free. On the test day, the animals were allowed to acclimate to the testing room for 30 min prior to initiation of experiments. Experiments were carried out in a white plexiglass chamber, designated as experimental arena. The arena was placed in a dark experimental room that was illuminated by a halogen lamp, providing a dim light to the arena.
Animals were placed in the arena for a 5 minute period to freely explore the test chamber in the absence of objects (habituation). Animals were then returned to their home cage immediately upon completion of habituation for a 120 min period. (1R,3R,5S)-8-Methyl-8-azabicyclo[3.2.1]octan-3-yl 1-(2,2,2-trifluoroethyl)-1H-indole-3-carboxylate (0.1, 1, 10 mg/kg s.c.), or vehicle (veh, saline) was administered 120 min prior to T1 and galantamine (5 mg/kg, i.p.) was administered 30 min prior to T1. Animals were returned to the arena which contained two identical objects (plastic balls) placed at one end of the arena (acquisition, T1), and allowed to explore for a 5 min period. The time spent exploring the two objects was recorded. Animals were once again returned to the home cage for a period of 120 min (ITI).
ITI was followed by the retention phase (T2) where one of the objects presented in the first trial was replaced by a novel object and animals were allowed to explore for an additional 5 min period. Again, the time spent exploring the two objects was recorded.
For the retention phase, the differences between the time spent exploring the familiar object and the novel object were examined. All sessions were recorded and scored blindly for the time exploring objects. Exploration is defined as touching the object or directing nose towards object at a distance less that 2 cm. A minimal exploration criterion was used such that only animals with exploration time of greater than 5 seconds per object were included.
Comparisons of all treatment groups were conducted using a one-way ANOVA followed by a Bonferroni's post hoc test for multiple comparisons.

5HT3a receptor = 5HT3a receptor (Homo sapiens (Human), UniProt P46098); assay: Inhibition of Ca flux activity of 5HT3 in vitro assay; assay type: cell-based; details: 5HT3a expressed in HEK-293T cells; 5HT 216 nM; approximate values
Description: The 5HT3 antagonist activity of the compounds of the invention was determined by measuring the ability of the compounds to inhibit the calcium flux activity of […] receptor expressed in HEK-293T cells. HEK-293T cells were transfected with the 5HT3a expression construct using Xtreme Gene 9 (Roche) in 150 mm tissue culture treated plates and incubated for 24 hours at 37° C. Cells were then split and plated at a density of 60K cells/well in poly-lysine coated, black 96-well plates with clear bottoms (BD BioSciences) and incubated overnight at 37° C. Growth media was removed and cells loaded with 200 uL calcium indicator dye in HBSS containing 20 mM HEPES (Calcium 5 Assay kit, Molecular Devices) and incubated at 37° C. for 1 hour. While cells were incubating, the 10× antagonist and agonist/antagonist addition plates were made. For 10× antagonist plate: half log serial dilutions (final concentrations range from 10^−7 through 10^−10 with the bottom well a negative, no ligand control) were made from test compounds in DMSO at a 1000× concentration and then diluted to 10× in HBSS/20 mM HEPES. For addition plate: 5HT was diluted to 100× in HBSS/20 mM HEPES (final concentration in the assay-216 nM) and 15 uL was added to each well of the addition plate, 15 uL of 10× compound was also added to the addition plate, and finally 120 uL of HBSS/20 mM HEPES (for a total of 150 uL). Cells were then removed from the incubator and equilibrated to room temperature for 10 minutes, then 22.5 uL of 10× test compounds were added in triplicate to the plates and incubated at room temperature for 10 minutes (Tropisetron was used as a positive control in every assay). Test plate and addition plate were loaded into the FlexStation III (Molecular Devices), and using the fluidics, 22.5 uL compound additions were made (at t=˜17 seconds), and fluorescence was measured for 90 seconds, reading every 2.2 seconds. Data sets were analyzed as max minus min using Software Max Pro (Molecular Devices). IC50 curves were generated using non-linear regression in GraphPad Prism.

5HT3a receptor, sequence (P46098 24-478): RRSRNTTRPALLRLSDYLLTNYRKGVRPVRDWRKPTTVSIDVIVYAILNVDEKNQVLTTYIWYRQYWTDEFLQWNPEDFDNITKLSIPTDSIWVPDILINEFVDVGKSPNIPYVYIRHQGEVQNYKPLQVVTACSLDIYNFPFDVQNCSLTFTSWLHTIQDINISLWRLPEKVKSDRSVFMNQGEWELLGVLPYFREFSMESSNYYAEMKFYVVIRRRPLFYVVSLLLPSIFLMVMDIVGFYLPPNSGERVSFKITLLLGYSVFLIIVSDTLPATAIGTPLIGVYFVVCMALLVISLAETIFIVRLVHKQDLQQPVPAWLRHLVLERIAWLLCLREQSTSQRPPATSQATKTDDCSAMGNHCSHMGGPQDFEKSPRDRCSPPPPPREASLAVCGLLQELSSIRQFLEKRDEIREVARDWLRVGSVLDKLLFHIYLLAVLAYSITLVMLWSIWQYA

## CN1[C@@H]2CC[C@H]1C[C@@H](OC(=O)c1cn(CC(F)(F)F)c3ccccc13)C2
[1]; 0.1 mg/kg s.c.
  discrimination between familiar and novel objects: did not demonstrate a statistically significant discrimination
[1]; 1 mg/kg s.c.
  discrimination between familiar and novel objects: demonstrated a statistically significant discrimination
[1]; 10 mg/kg s.c.
  discrimination between familiar and novel objects: demonstrated a statistically significant discrimination

## COc1ccc2c3c1O[C@H]1C[C@@H](O)C=C[C@@]31CCN(C)C2 [Galantamine, galantamine, reference compound]
[1]; galantamine 5 mg/kg i.p., 2 h ITI
  discrimination between familiar and novel objects: statistically significant discrimination

## O=C(OC1C[C@H]2COC[C@@H](C1)N2)c1cn(-c2ncccn2)c2ccccc12 (stereo partly drawn) [Compound 25, (1R,5S,7S)-3-oxa-9-aza-bicyclo[3.3.1]nonan-7-yl 1-(pyrimidin-2-yl)-1H-indole-3-carboxylate, 2,2,2-trifluoro-acetate]
5HT3a receptor
  IC50: 3.88 nM

Reference: patent publication US9695195B2, “5-HT3 receptor antagonists” (Takeda Pharmaceutical Company Limited, priority 2012, dated 2017)
